In assay [1] the test system is HDAC-2. In words: HDAC-2 protein levels in NIH3T3 cells. It is filed as cell-based, mouse.
For assay [2], the system named is HDAC-2. In words: HDAC-2 protein levels in K562 leukemia cells. In kind it is cell-based, human.

The structures appear in SMILES notation.

As for `CCCC(CCC)C(=O)O` [VPA, Valproic acid], the HDAC-2 protein levels entry with HDAC-2 [1] and in the assay on HDAC-2 [2] was “reduced” each time.

Values taken from patent US20130231472A1, “USE OF MOLECULAR MARKERS FOR THE PRECLINICAL PROFILING OF INHIBITORS OF ENZYMES HAVING HISTONE DEACETYLASE ACTIVITY” (priority 2002, published 2013).
